Laboratory results reported in patent US20040023884A1, “Biologically active peptides from functional domains of bactericidal/permeability-increasing protein and uses thereof” (priority 1993, published 2004).
Ends that are not written are not given here.

Columns and labels:
E. coli J5 (rough) = assay: Broth antibacterial assay, E. coli J5; assay type: cell-based
Procedure: (§1) In additional experiments, broth antibacterial assays were conducted to further determine the bactericidal activity of certain of the BPI peptides. Specifically, either E. coli J5 (rough) or E. coli 0111:B4 (smooth) bacteria were selected from single colonies on agar plates and used to inoculate 5 mL of Mueller Hinton broth and incubated overnight at 37° C. with shaking. The overnight culture was diluted (˜1:50) into 5 mL fresh broth and incubated at 37° C. to log phase (˜3 hours). Bacteria were pelleted for 5 minutes at 3000 rpm (1500×g). Bacterial pellets were resuspended in 5 mL PBS and diluted to 2×10^6 cells/mL in the Mueller Hinton broth (wherein 1 OD570 unit equals 1.25×10^9 CFU/mL). The BPI functional domain peptides to be tested were diluted to 200 μg/mL in broth and serially diluted 2-fold in 96 well culture plates (100 μL volume). All items were at 2-fold final concentration and experiments were conducted in triplicate. Bacteria were added at 100 μL/well and the plates were incubated on a shaker at 37° C. for a 20 hour period. The plates were then read on an ELISA plate multiple reader at 590 nm. One of the triplicate wells from each peptide concentration was selected for colony forming unit (CFU) determination. A 30 μL aliquot was added to 270 μL of PBS and further ten-fold serial dilutions were performed. Then a 50 μL aliquot was plated on tryptic soy agar and incubated overnight. Colonies were counted and final bacterial concentrations determined. The results of these assays are depicted in FIGS. 9e (for E. coli J5) and 9f (for E. coli 0111:B4).

E. coli 0111:B4 (smooth) = assay: Broth antibacterial assay, E. coli 0111:B4; assay type: cell-based
Procedure: as §1

[1] = test system: multi-resistant strain E. coli 19536; assay: Radial diffusion bactericidal assay, multi-antibiotic resistant E. coli 19536; assay type: cell-based
Procedure: These studies were conducted substantially following the procedures used in Example 2.
In order to test the bactericidal activity of BPI peptides against multi-antibiotic resistant E. coli, a multi-resistant strain E. coli 19536 (ampR 16 μg/mL; ceftazidimeR>16 μg/mL; ceftriazoneR>16 μg/mL) was tested. This strain is a clinical isolate obtained from the Baxter Microscan® library (Sacramento, Calif.). An overnight culture of E. coli 19536 was tested as described in Example 2 and part A above. Test BPI peptides were 2-fold serially diluted in D-PBS starting at about 1 mg/mL.

[2] = test system: L-form of S. aureus ATCC 19640; assay: Activity against L-forms of gram-positive bacteria; assay type: cell-based
Procedure: The bactericidal capacity of BPI peptides provided by the invention was also tested against Gram-positive bacteria (See Table VIII A). […] In addition, peptides were tested for their activity against L-forms of gram-positive bacteria, such as the L-form of S. aureus ATCC 19640.

[3] = LPS binding by tryptophan fluorescence quenching
Source text: The naturally-occurring amino acid tryptophan can emit light (i.e., it fluoresces) having a wavelength between 300 and 400 nm after excitation with light having a wavelength of between about 280 nm and 290 nm, preferably 285 nm. The amount of emitted light produced by such fluorescence is known to be affected by the local environment, including pH and buffer conditions, as well as binding interactions between proteins and other molecules. Some BPI functional domain peptides derived from domains II and III contain tryptophan residues, and tryptophan fluorescence was used to assay binding interactions between the BPI functional domain peptides of the invention and LPS or heparin.
Tryptophan fluorescence of the BPI functional domain peptides of the invention was determined in the presence or absence of LPS or heparin using a SPEX Fluorolog fluorimeter. Samples were excited with 285 nm light using a 0.25 nm slitwidth. Emission wavelengths were scanned between 300-400 nm using a 1.25 nm slitwidth. Data were accumulated as the average of three determinations performed over an approximately 5 min time span. Samples were maintained at 25° C. or 37° C. during the course of the experiments using a circulating water bath. Crab endotoxin binding protein (CEBP), a protein wherein the intrinsic fluorescence of tryptophan residues is affected by binding to LPS, was used as a positive control. (See Wainwright et al., 1990, Cellular and Molecular Aspects of Endotoxin Reactions, Nowotny et al., eds., Elsevier Science Publishing B.V., The Netherlands, pp. 315-325).
Kd values were determined by Scatchard-type Stern-Volmer plots of the quenching data as the negative inverse of the slope of such plots. Comparing the data for BPI.10, BPI.46 and BPI.47, it is seen that as the Kd decreased (indicating an increase in avidity for LPS), the percent fluorescence quenching increased. The differences between these peptides include replacement of basic and polar amino acid residues with non-polar residues in […] as compared with BPI.10. In contrast, as the Kd of heparin binding decreased, a corresponding increase in the percentage of fluorescence quenching was not detected.

Candida albicans = assay type: cell-based
E. coli O75 = assay: Radial diffusion bactericidal assay, E. coli O75; assay type: cell-based; conditions: FIG. 11d; up to about 2000 pmol
Pseudomonas aeruginosa = assay: Radial diffusion bactericidal assay, Pseudomonas aeruginosa; assay type: cell-based; conditions: FIG. 11a; up to about 2000 pmol
E. coli O18:K1:H7 = assay: Radial diffusion bactericidal assay, E. coli O18:K1:H7; assay type: cell-based; conditions: FIG. 11b; up to about 2000 pmol
[4] = Binding of [125I]-RaLPS to peptides pre-bound to HUVEC cells; assay type: cell-based, human; conditions: 1 μg/mL or 3 μg/mL peptide
Procedure: In a third binding assay, a number of BPI functional domain peptides were tested for their ability to bind to radiolabeled LPS following incubation with human endothelial cells (HUVEC). This assay measures the ability to bind LPS once the BPI peptides are bound to HUVEC cells. HUVEC cells were incubated in the presence of various BPI peptides at a concentration of either 1 μg/mL or 3 μg/mL for 3 hr at 4° C. in 500 μL of a solution of D-PBS/BSA. Following this incubation, the cells were washed twice with ice-cold D-PBS/BSA and then incubated for an additional 2.5 hr at 4° C. in 500 μL of a solution of [^125I]-RaLPS (a total of 340,000 cpm at a specific activity of 4.6×10^6 cpm/μg) in D-PBS/BSA. The wells were washed three times with D-PBS/BSA, solubilized in 500 μL of 1M NaOH and the lysates counted using a gamma counter.

E. coli 86a:K61 = assay: Bactericidal assay performed in human serum, E. coli O86a:K61; assay type: cell-based; conditions: FIG. 11l
Source text: FIG. 11l is a graph showing the results of BPI functional domain peptide BPI.30 in bactericidal assays performed in human serum;

E. coli O4:K12 = assay: Broth bactericidal assay, E. coli O4:K12; assay type: cell-based; conditions: FIG. 11k

| Substance | bactericidal activity (in words) (E. coli J5 (rough)) | bactericidal activity (in words) (E. coli 0111:B4 (smooth)) | activity against L-form bacteria (in words) [2] | bactericidal activity (in words) (E. coli O75) | bactericidal activity (in words) (Pseudomonas aeruginosa) | bactericidal activity (in words) (E. coli O18:K1:H7) | LPS binding while bound to HUVEC cells (in words) [4] | other results |
| --- | --- | --- | --- | --- | --- | --- | --- | --- |
| KWKAQKRFLKKWKAQKRFLK-NH2 (C-terminus assumed) [BPI.7] | significant bactericidal activity | significant bactericidal activity |  |  |  |  |  |  |
| KWKAAARFLKKWKAAARFLK [BPI.48] |  |  | active against these L-form bacteria |  |  |  |  | bactericidal activity (in words) [1]: activity against multi-antibiotic resistant E. coli; Quenching LPS [3]: 62%; Kd ([3]; Stern-Volmer plots): 83 nM |
| KSKVGWLIQLFHKK-NH2 (C-terminus assumed) [BPI.13] |  |  | active against these L-form bacteria | showed bactericidal activity | showed bactericidal activity | showed bactericidal activity |  | MIC C. alb (Candida albicans): 6.25 µg/mL |
| KSKVGWLIQLFHKKKSKVGWLIQLFHKK-NH2 (C-terminus assumed) [BPI.29] |  |  |  |  |  |  | retain the capacity to bind LPS while bound to HUVEC cells |  |
| NVGLKFSISNANIKISGKWKAQKRFLK [BPI.3] | significant anti-bacterial activity | less activity |  |  |  |  |  |  |
| KWKAQKRFLKKSKVGWLIQLFHKK-NH2 (C-terminus assumed) [BPI.30] |  |  |  | showed bactericidal activity | showed bactericidal activity | showed bactericidal activity | retain the capacity to bind LPS while bound to HUVEC cells | bactericidal activity (in words) (E. coli 86a:K61): showed bactericidal activity; bactericidal activity (in words) (E. coli O4:K12): showed bactericidal activity |
